This note sets out measurements from PubChem BioAssay (NCI).

Assay in all cases: NCI tumour cell line growth inhibition, 48 h
In assay [1] the test system is SK-MEL-28 melanoma.
Assay [2] deals with 786-0 renal.
The test system of assay [3] is TK-10 renal.
Assay [4] deals with CAKI-1 renal.
Assay [5] relates to SF-539 CNS.
Assay [6] deals with HOP-62 NSCLC.
In assay [7] the test system is NCI-H522 lung.
For assay [8], the system named is T-47D breast.

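Cells were grown in 96-well plates and exposed to each compound for 48 hours at five concentrations; endpoints were interpolated linearly between bracketing concentrations, or set to the highest concentration if not reached. The concentration for 50% growth inhibition is given as GI50. TGI is the concentration that stops growth completely.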

Regarding `CSc1nc2c(c(=O)n1C)C(c1ccccc1)C1=C(N2)/C(=C/c2ccccc2)CCC1` (stereo unspecified), the GI50 is greater than 100 µM in assay [1]; 11.7 µM in assay [2]; 20.9 µM in assay [3]; 69 µM in assay [4]; 9.98 µM in assay [5]; 20 µM in assay [6]. In addition, the GI50 was 5.93 µM in assay [7] and 4.15 µM in assay [8]. Also, the TGI in assay [1] is greater than 100 µM; in assay [2], 56.4 µM; in assay [3] it was greater than 100 µM; in assay [4], greater than 100 µM; in assay [5] it was 81.5 µM; in assay [6], greater than 100 µM. Besides, the TGI in assay [7] and in assay [8] was greater than 100 µM each time.

In the case of `FC(F)(F)c1cccc(-c2[nH]ncc2-c2nnnn2-c2ccccc2)c1`, the GI50 was 5.6 µM in assay [1]; 5.78 µM in assay [2]; 6.6 µM in assay [3]; 5.36 µM in assay [4]; 6.79 µM in assay [5]; 7.88 µM in assay [6]. Also, the GI50 is 4.58 µM in assay [7] and 4.23 µM in assay [8]. Moreover, the TGI is 19.1 µM in assay [1]; 22 µM in assay [2]; 20 µM in assay [3]; 27.7 µM in assay [4]; 21 µM in assay [5]; 23.4 µM in assay [6]. Also, the TGI in assay [7] turned out to be 19 µM; in assay [8], 24.7 µM.

`CC(C)(C)[Si](C)(C)OC1[C@@H](COC(=O)NC(=O)CCl)O[C@@H](n2cnc3c(N)ncnc32)[C@H]1O[Si](C)(C)C(C)(C)C` (stereo partly specified): the GI50 in assay [1] is 7.12 µM; in assay [2], 1.05 µM; in assay [3], 9.14 µM; in assay [4], 4.25 µM; in assay [5] it was 6.97 µM; in assay [6] it was 4.04 µM. The GI50 is 0.122 µM in assay [7] and 4.94 µM in assay [8]. In addition, the TGI in assay [1] is 13.7 µM; in assay [2], 2.33 µM; in assay [3], 16.1 µM; in assay [4], 11.2 µM; in assay [5] it was 13.6 µM; in assay [6], 10.3 µM. Moreover, the TGI in assay [7] was determined as 0.312 µM; in assay [8] it was 11.1 µM.

As for `Cc1cc(N2CCOCC2)nc(NCc2cc(Nc3ccnc4cc(Cl)ccc34)ccc2F)n1`, the GI50 in assay [1] was 1.83 µM; in assay [2] it was 1.83 µM; in assay [3] it was 1.84 µM; in assay [4], 1.63 µM; in assay [5], 1.79 µM; in assay [6] it was 1.51 µM. For the same molecule, the GI50 in assay [7] is 1.95 µM; in assay [8], 1.38 µM. Besides, the TGI came out at 3.4 µM in assay [1]; 3.35 µM in assay [2]; 3.4 µM in assay [3]; 3.14 µM in assay [4]; 3.28 µM in assay [5]; 2.96 µM in assay [6]. In addition, the results for the TGI in assay [7] and in assay [8] were 3.85 µM and 3.41 µM, respectively.

In the case of `CN(C)c1ccc2[nH]c3c(C(N)=O)cc(=O)c(=O)c=3oc2c1`, the GI50 in assay [1] was 4.2 µM; in assay [2], 3.19 µM; in assay [3] it was 3.73 µM; in assay [4], 3.48 µM; in assay [5], 0.428 µM; in assay [6] it was 2.42 µM. Also, the figures for the GI50 in assay [7] and in assay [8] were 0.687 µM and 1.81 µM, respectively. Also, the TGI in assay [1] is greater than 100 µM; in assay [2], 22.2 µM; in assay [3], greater than 100 µM; in assay [4] it was greater than 100 µM; in assay [5] it was 4.43 µM; in assay [6] it was greater than 100 µM. For the same molecule, the results for the TGI in assay [7] and in assay [8] were 8.24 µM and greater than 100 µM, respectively.

As to `COc1ccc2c(c1)C(=O)c1c-2n(CCCN(C)C)c(=O)c2cc([N+](=O)[O-])ccc12`, the GI50 in assay [1] was 0.192 µM; in assay [2] it was less than 0.01 µM; in assay [3], 0.604 µM; in assay [4] it was less than 0.01 µM; in assay [5], less than 0.01 µM; in assay [6], less than 0.01 µM. Besides, the GI50 in assay [7] and in assay [8] was less than 0.01 µM in each case. In addition, the TGI was 2.59 µM in assay [1]; less than 0.01 µM in assay [2]; 5.38 µM in assay [3]; less than 0.01 µM in assay [5]; less than 0.0447 µM in assay [6]; 0.898 µM in assay [7]. The molecule further had a TGI in assay [8] of 21.6 µM.

Consider `COC(=O)c1cc2cc(/C=C3/SC(=S)N(N(C(C)=O)C(C)=O)C3=O)oc2n1Cc1ccccc1`, for which the GI50 is 38.4 µM in assay [1]; 21.1 µM in assay [2]; 17.4 µM in assay [3]; 14.2 µM in assay [4]; 20.4 µM in assay [5]; 2.67 µM in assay [6]. Besides, the values for the GI50 in assay [7] and in assay [8] were 19.1 µM and greater than 100 µM, respectively. For the same molecule, the TGI in assay [1] is greater than 100 µM; in assay [2], 38.6 µM; in assay [3] it was 35.1 µM; in assay [4], 40.8 µM; in assay [5], 39.3 µM; in assay [6] it was 14.1 µM. In addition, the TGI in assay [7] was 48.6 µM; in assay [8], greater than 100 µM.

`COc1ccc(-c2c(-c3ccc(C#N)c(F)c3)nc(N3CCC(N)CC3)n(C)c2=O)cc1F`: the GI50 in assay [1] is 15.3 µM; in assay [2], 11.7 µM; in assay [3] it was 12.8 µM; in assay [4], 13.8 µM; in assay [5], 13.8 µM; in assay [6], 17.1 µM. Also, the GI50 in assay [7] was 13.6 µM; in assay [8], 14 µM. Besides, the TGI in assay [1] was 29.8 µM; in assay [2], 24.7 µM; in assay [3] it was 32.4 µM; in assay [4], 30.6 µM; in assay [5], 29.3 µM; in assay [6], greater than 100 µM. For the same molecule, the values for the TGI in assay [7] and in assay [8] were 30.7 µM and 46.3 µM, respectively.

On to `COc1ccc(C(O)c2ccccn2)cc1` (stereo unspecified), for which the TGI in assay [1], in assay [2], in assay [3], in assay [4], in assay [5] and in assay [6] was greater than 100 µM each time. In addition, the TGI in assay [7] and in assay [8] was greater than 100 µM in each case.

In the case of `Oc1[nH]c2ccccc2c1C=Nc1ccc(-n2cncn2)cc1`, the GI50 is greater than 25 µM in assay [1]; greater than 25 µM in assay [2]; greater than 17.1 µM in assay [3]; greater than 22.7 µM in assay [4]; greater than 25 µM in assay [5]; greater than 13.8 µM in assay [6]. Further, the values for the GI50 in assay [7] and in assay [8] were 10.7 µM and 8.79 µM, respectively. Also, the TGI was greater than 25 µM in assay [1]; greater than 25 µM in assay [2]; greater than 25 µM in assay [3]; greater than 25 µM in assay [4]; greater than 25 µM in assay [5]; greater than 22.2 µM in assay [6]. Also, the TGI in assay [7] was greater than 25 µM; in assay [8], greater than 21.9 µM.
